In patent publication US9409914B2, “Triazolo[4,5-d]pyrimidine derivatives” (Merck Patent GmbH, priority 2012, dated 2016):

What was measured:
GCN2 [1] = target: T1, GCN2 (Homo sapiens, UniProt Q9P2K8); assay: GCN2 enzyme assay (TR-FRET Lanthascreen, phosphorylation of GFP-eIF2alpha); type: biochemical; conditions: 10 μM ATP, 80 nM GFP-eIF2alpha, 30 nM GCN2, room temperature
Summary of the method: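 Two-step TR-FRET (Lanthascreen) format: GCN2 incubated at room temperature with 10 μM ATP and 80 nM GFP-labelled eIF2alpha, then stopped with EDTA. Phospho-eIF2alpha detected by Tb-labelled antibody, excitation 340 nm; activity taken from the 520/495 nm emission ratio.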
Target sequence in this assay (Q9P2K8 whole entry, species assumed): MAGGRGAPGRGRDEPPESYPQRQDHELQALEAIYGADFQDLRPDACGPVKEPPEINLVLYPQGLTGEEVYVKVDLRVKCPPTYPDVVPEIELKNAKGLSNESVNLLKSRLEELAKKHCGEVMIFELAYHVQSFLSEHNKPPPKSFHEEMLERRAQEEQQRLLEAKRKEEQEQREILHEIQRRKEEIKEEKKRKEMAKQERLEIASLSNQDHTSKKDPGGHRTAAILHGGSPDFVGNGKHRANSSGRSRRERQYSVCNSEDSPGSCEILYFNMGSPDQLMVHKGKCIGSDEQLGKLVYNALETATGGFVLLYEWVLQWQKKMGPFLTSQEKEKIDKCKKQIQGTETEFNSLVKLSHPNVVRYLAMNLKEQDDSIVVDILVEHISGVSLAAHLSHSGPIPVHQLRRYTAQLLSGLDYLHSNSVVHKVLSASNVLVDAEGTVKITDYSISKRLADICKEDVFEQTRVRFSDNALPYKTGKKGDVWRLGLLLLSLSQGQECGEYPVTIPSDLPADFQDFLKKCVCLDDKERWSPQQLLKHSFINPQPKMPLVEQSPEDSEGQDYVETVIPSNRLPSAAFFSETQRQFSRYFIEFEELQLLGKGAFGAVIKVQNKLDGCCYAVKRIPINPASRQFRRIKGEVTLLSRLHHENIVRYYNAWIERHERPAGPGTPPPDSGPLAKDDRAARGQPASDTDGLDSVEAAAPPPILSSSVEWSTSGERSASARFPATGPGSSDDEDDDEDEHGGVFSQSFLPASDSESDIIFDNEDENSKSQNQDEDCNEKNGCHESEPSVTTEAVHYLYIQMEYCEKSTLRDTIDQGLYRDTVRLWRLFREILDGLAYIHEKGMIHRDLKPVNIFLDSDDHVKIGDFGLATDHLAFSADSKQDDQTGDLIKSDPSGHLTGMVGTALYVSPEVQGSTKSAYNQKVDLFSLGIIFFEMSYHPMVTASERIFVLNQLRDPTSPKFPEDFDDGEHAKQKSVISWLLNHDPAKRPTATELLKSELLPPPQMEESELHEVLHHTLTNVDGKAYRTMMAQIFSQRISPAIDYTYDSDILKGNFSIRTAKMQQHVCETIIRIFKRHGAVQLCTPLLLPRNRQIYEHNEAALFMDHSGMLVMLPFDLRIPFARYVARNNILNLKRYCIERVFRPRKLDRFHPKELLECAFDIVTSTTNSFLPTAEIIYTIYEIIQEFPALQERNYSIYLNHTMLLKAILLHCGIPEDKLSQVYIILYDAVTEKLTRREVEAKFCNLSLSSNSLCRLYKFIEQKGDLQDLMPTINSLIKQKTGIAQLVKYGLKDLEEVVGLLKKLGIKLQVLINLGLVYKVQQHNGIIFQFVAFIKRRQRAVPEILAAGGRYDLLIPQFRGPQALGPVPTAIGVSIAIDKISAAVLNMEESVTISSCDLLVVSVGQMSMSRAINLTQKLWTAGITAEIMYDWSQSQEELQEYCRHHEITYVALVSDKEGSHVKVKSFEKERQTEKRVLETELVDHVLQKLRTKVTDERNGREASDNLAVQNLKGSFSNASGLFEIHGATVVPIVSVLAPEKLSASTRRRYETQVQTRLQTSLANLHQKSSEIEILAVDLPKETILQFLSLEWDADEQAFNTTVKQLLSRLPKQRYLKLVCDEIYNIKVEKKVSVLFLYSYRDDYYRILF

GCN2 [2] = target: T1, GCN2; assay: Cellular assay for GCN2 activity (phospho-eIF2alpha immunocytochemistry, tryptophanol-stimulated U2OS cells); type: cell-based; set-up: endogenous in cells; host or cells: U2OS; conditions: 2 hours compound, then 600 μM tryptophanol 30 minutes, anti-phospho-eIF2alpha, read-out: IC50 GCN2 (cell assay)
Protocol: Cellular Assay for the Determination of Compound Activities
Human U2OS cells (2000 cells/well) are seeded into 384-well plates and incubated for 20 hours.
The next day, the cells are treated with the test compounds and incubated for 2 hours. Then, tryptophanol, at a final concentration of 600 μM, is added to the cells and those are incubated for 30 minutes.
The analysis of cellular GCN2 activities is done by immunocytochemistry. Briefly, cells are fixated on the well surfaces by formaldehyde and permeabilised with Triton X-100. The primary antibody (anti-phospho-eIF2alpha (Ser51, Cell Signalling Technology, #3398) is incubated on the treated cells for 20 hours, followed by a 60 minutes incubation of the secondary antibody (anti-rabbit-IgG-Alexa 488; Molecular Probes #11008). The analysis and quantification of phosphorylated GCN2 is done by scanning the plates in the Acumen Explorer system (TTPLabtech). The obtained data are normalised against the untreated control wells (DMSO only) and expressed as % effect values. The determination of IC50 values is done by using the Graph Pad Prism software.
Target sequence in this assay (Q9P2K8 whole entry): as the sequence (Q9P2K8 whole entry, species assumed) above

Row | Compound | IC50 (GCN2 [1]) [nM] | IC50 (GCN2 [2]) [µM]
1 | COCCOc1ccc(-n2nnc3cnc(Nc4cnn(C5CCN(C)CC5)c4)nc32)cc1 [Compound A27, 3-[4-(2-methoxyethoxy)phenyl]-N-[1-(1-methyl-4-piperidyl)pyrazol-4-yl]triazolo[4,5-d]pyrimidin-5-amine] | < 300 | 0.3 to 3
2 | CCOc1ccc(-n2nnc3cnc(Nc4cnn(C5CCN(C)CC5)c4)nc32)cc1 [Compound A28, 3-(4-ethoxyphenyl)-N-[1-(1-methyl-4-piperidyl)pyrazol-4-yl]triazolo[4,5-d]pyrimidin-5-amine] | < 300 | 0.3 to 3
3 | COc1cc(-n2nnc3cnc(Nc4cnn(C5CCN(C)CC5)c4)nc32)ccn1 [Compound A30, 3-(2-methoxy-4-pyridyl)-N-[1-(1-methyl-4-piperidyl)pyrazol-4-yl]triazolo[4,5-d]pyrimidin-5-amine] | < 300 | 0.3 to 3
4 | CN1CCC(n2cc(Nc3ncc4nnn(-c5ccc(Cl)c(F)c5)c4n3)cn2)CC1 [Compound A44, [3-(4-chloro-3-fluoro-phenyl)-3H-[1,2,3]triazolo[4,5-d]pyrimidin-5-yl]-[1-(1-methyl-piperidin-4-yl)-1H-pyrazol-4-yl]-amine] | < 300 | 0.3 to 3
5 | CCOc1ccc(-n2nnc3cnc(Nc4cnn(CC)c4)nc32)cc1 [Compound A46, [3-(4-ethoxy-phenyl)-3H-[1,2,3]triazolo[4,5-d]pyrimidin-5-yl]-(1-ethyl-1H-pyrazol-4-yl)-amine] | < 300 | 0.3 to 3
6 | CN1CCC(n2cc(Nc3ncc4nnn(-c5ccc(N6CCCC6=O)cc5)c4n3)cn2)CC1 [Compound A48, 1-(4-{5-[1-(1-methyl-piperidin-4-yl)-1H-pyrazol-4-ylamino]-[1,2,3]triazolo[4,5-d]pyrimidin-3-yl}-phenyl)-pyrrolidin-2-one] | < 300 | 0.3 to 3
7 | CCOc1ccc(-n2nnc3cnc(Nc4cnn(CCCOC)c4)nc32)cc1 [Compound A49, [3-(4-ethoxy-phenyl)-3H-[1,2,3]triazolo[4,5-d]pyrimidin-5-yl]-[1-(3-methoxy-propyl)-1H-pyrazol-4-yl]-amine] | < 300 | 3 to 50
8 | CCOc1ccc(-n2nnc3cnc(Nc4cnn(CCOC(C)(C)C)c4)nc32)cc1 [Compound A51, [1-(2-tert-butoxy-ethyl)-1H-pyrazol-4-yl]-[3-(4-ethoxy-phenyl)-3H-[1,2,3]triazolo[4,5-d]pyrimidin-5-yl]-amine] | < 300 | 0.3 to 3
9 | CCOc1ccc(-n2nnc3cnc(Nc4cnn(CCn5cccn5)c4)nc32)cc1 [Compound A54, [3-(4-ethoxy-phenyl)-3H-[1,2,3]triazolo[4,5-d]pyrimidin-5-yl]-[1-(2-pyrazol-1-yl-ethyl)-1H-pyrazol-4-yl]-amine] | < 300 | 0.3 to 3
10 | COCCOc1ccc(-n2nnc3cnc(Nc4cnn(C)c4)nc32)cc1 [Compound A56, {3-[4-(2-methoxy-ethoxy)-phenyl]-3H-[1,2,3]triazolo[4,5-d]pyrimidin-5-yl}-(1-methyl-1H-pyrazol-4-yl)-amine] | < 300 | 0.3 to 3
11 | COCCOc1ccc(-n2nnc3cnc(Nc4cnn(CCn5cccn5)c4)nc32)cc1 [Compound A65, {3-[4-(2-methoxy-ethoxy)-phenyl]-3H-[1,2,3]trtazolo[4,5-d]pyrimidin-5-yl}-[1-(2-pyrazol-1-yl-ethyl)-1H-pyrazol-4-yl]-amine] | < 300 | 0.3 to 3
12 | CN1CCC(n2cc(Nc3ncc4nnn(-c5cccc(C(N)=O)c5)c4n3)cn2)CC1 [Compound A67, 3-{5-[1-(1-methyl-piperidin-4-yl)-1H-pyrazol-4-ylamino]-[1,2,3]triazolo[4,5-d]pyrimidin-3-yl}-benzamide] | < 300 | 3 to 50
13 | CCn1cc(Nc2ncc3nnn(-c4cccc(C(N)=O)c4)c3n2)cn1 [Compound A68, 3-[5-(1-ethyl-1H-pyrazol-4-ylamino)-[1,2,3]triazolo[4,5-d]pyrimidin-3-yl]-benzamide] | 300 to 3000 | 3 to 50
14 | CN1CCC(n2cc(Nc3ncc4nnn(-c5ccc(C(N)=O)cc5)c4n3)cn2)CC1 [Compound A69, 4-{5-[1-(1-methyl-piperidin-4-yl)-1H-pyrazol-4-ylamino]-[1,2,3]triazolo[4,5-d]pyrimidin-3-yl}-benzamide] | < 300 | 0.3 to 3
15 | CCn1cc(Nc2ncc3nnn(-c4ccc(C(N)=O)cc4)c3n2)cn1 [Compound A70, 4-[5-(1-ethyl-1H-pyrazol-4-ylamino)-[1,2,3]triazolo[4,5-d]pyrimidin-3-yl]-benzamide] | < 300 | 3 to 50
16 | CCn1cc(Nc2ncc3nnn(-c4ccc5ncccc5c4)c3n2)cn1 [Compound A71, (1-ethyl-1H-pyrazol-4-yl)-(3-quinolin-6-yl-3H-[1,2,3]triazolo[4,5-d]pyrimidin-5-yl)-amine] | < 300 | 0.3 to 3
17 | CN1CCC(n2cc(Nc3ncc4nnn(-c5ccc6cccnc6c5)c4n3)cn2)CC1 [Compound A73, [1-(1-methyl-piperidin-4-yl)-1H-pyrazol-4-yl]-(3-quinolin-7-yl-3H-[1,2,3]triazolo[4,5-d]pyrimidin-5-yl)-amine] | < 300 | 3 to 50
18 | CN1CCC(n2cc(Nc3ncc4nnn(-c5ccc6ncccc6c5)c4n3)cn2)CC1 [Compound A75, [1-(1-methyl-piperidin-4-yl)-1H-pyrazol-4-yl]-(3-quinolin-6-yl-3H-[1,2,3]triazolo[4,5-d]pyrimidin-5-yl)-amine] | < 300 | 0.3 to 3
19 | COCCN1CCC(n2cc(Nc3ncc4nnn(-c5ccnc(OC)c5)c4n3)cn2)CC1 [Compound A76, {1-[1-(2-methoxy-ethyl)-piperidin-4-yl]-1H-pyrazol-4-yl}-[3-(2-methoxy-pyridin-4-yl)-3H-[1,2,3]triazolo[4,5-d]pyrimidin-5-yl]-amine] | < 300 | 3 to 50
20 | COc1ccc(-n2nnc3cnc(Nc4cnn(C5CCN(C)CC5)c4)nc32)nc1 [Compound A77, [3-(5-methoxy-pyridin-2-yl)-3H-[1,2,3]triazolo[4,5-d]pyrimidin-5-yl]-[1-(1-methyl-piperidin-4-yl)-1H-pyrazol-4-yl]-amine] | < 300 | 0.3 to 3
21 | CCn1cc(-n2nnc3cnc(Nc4cnn(C5CCN(C)CC5)c4)nc32)cn1 [Compound A79, [3-(1-ethyl-1H-pyrazol-4-yl)-3H-[1,2,3]triazolo[4,5-d]pyrimidin-5-yl]-[1-(1-methyl-piperidin-4-yl)-1H-pyrazol-4-yl]-amine] | < 300 | 0.3 to 3
22 | NC(=O)c1ccc(-n2nnc3cnc(Nc4cnn(C5CCOCC5)c4)nc32)cc1 [Compound A80, 4-{5-[1-(tetrahydro-pyran-4-yl)-1H-pyrazol-4-ylamino]-[1,2,3]triazolo[4,5-d]pyrimidin-3-yl}-benzamide] | 300 to 3000 | < 0.3
23 | Fc1cc(-n2nnc3cnc(Nc4cnn(C5CCOCC5)c4)nc32)ccc1Cl [Compound A81, [3-(4-chloro-3-fluoro-phenyl)-3H-[1,2,3]triazolo[4,5-d]pyrimidin-5-yl]-[1-(tetrahydro-pyran-4-yl)-1H-pyrazol-4-yl]-amine] | < 300 | 0.3 to 3
24 | c1cnc2ccc(-n3nnc4cnc(Nc5cnn(C6CCOCC6)c5)nc43)cc2c1 [Compound A82, (3-quinolin-6-yl-3H-[1,2,3]triazolo[4,5-d]pyrimidin-5-yl)-[1-(tetrahydro-pyran-4-yl)-1H-pyrazol-4-yl]-amine] | 300 to 3000 | 0.3 to 3
25 | CCn1cc(-n2nnc3cnc(Nc4cnn(C5CCOCC5)c4)nc32)cn1 [Compound A83, [3-(1-ethyl-1H-pyrazol-4-yl)-3H-[1,2,3]triazolo[4.5-d]pyrimidin-5-yl]-[1-(tetrahydro-pyran-4-yl)-1H-pyrazol-4-yl]-amine] | < 300 | 3 to 50
26 | CCn1cc(Nc2ncc3nnn(-c4ccc5c(c4)NC(=O)C5(C)C)c3n2)cn1 [Compound A84, 6-[5-(1-ethyl-1H-pyrazol-4-ylamino)-[1,2,3]triazolo[4,5-d]pyrimidin-3-yl]-3,3-dimethyl-1,3-dihydro-indol-2-one] | < 300 | 0.3 to 3
27 | CC1(C)C(=O)Nc2cc(-n3nnc4cnc(Nc5cnn(C6CCOCC6)c5)nc43)ccc21 [Compound A85, 3,3-dimethyl-6-{5-[1-(tetrahydro-pyran-4-yl)-1H-pyrazol-4-ylamino]-[1,2,3]triazolo[4,5-d]pyrimidin-3-yl}-1,3-dihydro-indol-2-one] | < 300 | 0.3 to 3
28 | COCCOc1ccc(-n2nnc3cnc(Nc4cnn(C5CCOCC5)c4)nc32)cc1 [Compound A87, {3-[4-(2-methoxy-ethoxy)-phenyl]-3H-[1,2.3]triazolo[4,5-d]pyrimidin-5-yl}-[1-(tetrahydro-pyran-4-yl)-1H-pyrazol-4-yl]-amine] | < 300 | 0.3 to 3
29 | CCn1cc(Nc2ncc3nnn(-c4ccc5[nH]ncc5c4)c3n2)cn1 [Compound A91, (1-ethyl-1H-pyrazol-4-yl)-[3-(1H-indazol-5-yl)-3H-[1,2,3]triazolo[4,5-d]pyrimidin-5-yl]-amine] | < 300 | 0.3 to 3
